{"source": "paper PMC7316994", "about": "“In Vitro Pharmacological Profile of a New Small Molecule Bradykinin B2 Receptor Antagonist” (Frontiers in Pharmacology, 2020)", "key": {"prostanoid TP receptor": {"target": "T1, prostanoid TP receptor (Homo sapiens, UniProt P21731)", "T1 construct": "endogenous human prostanoid TP receptors in the umbilical vein model; from tissue; host or cells: human umbilical vein rings", "experiment": "umbilical vein, U-46619-induced contraction", "conditions": "Compound 2 10 μM; Compound 3 1 μM", "description": "The local ethics committee (CHU de Québec-Université Laval) had approved the project (File no. 2017-3720). Umbilical cords were obtained following elective caesarean sections; all problematic deliveries are excluded. Informed consent was obtained from the mothers. The cords were transported from the maternity ward to the laboratory in sterile Hank's balanced salt solution containing penicillin and streptomycin. Segments of umbilical veins were dissected carefully from the cords and a metal rod was inserted in the lumen. Excess connective tissue was excised and rings (2–3 mm wide) were cut. Rings of umbilical veins were suspended in 5-mL organ chambers containing oxygenated (95% O2, 5% CO2) and warmed (37°C) Krebs' solution between a metal hook and a thread loop. This solution had the following composition: NaCl 117.5 mM, KCl 4.7 mM, KH2PO4 1.2 mM, MgSO4 1.18 mM, CaCI2 2.5 mM, NaHCO3 25.0 mM, and D-glucose 5.5 mM. A baseline of one gram-weight was applied to these preparations. Changes of tension were recorded by using isometric transducers (model 52-9545, Harvard Bioscience, South Natick MA). Eight tissue baths are operated in parallel.\nFor this purpose, contractile responses to serotonin, acting on the 5-HT2A receptor, and U-46619, acting at the prostanoid TP receptor, were measured ([Rogines-Velo et al., 2002]; [Daray et al., 2003])."}, "Adenosine A1": {"target": "Adenosine A1 (Homo sapiens, UniProt P30542)", "experiment": "radioligand binding (Table S2)", "conditions": "[3H] DPCPX, Human recombinant CHO cells"}, "Adenosine A3": {"target": "T2, Adenosine A3 (Homo sapiens, UniProt P0DMS8)", "T2 sequence (P0DMS8 1-318)": "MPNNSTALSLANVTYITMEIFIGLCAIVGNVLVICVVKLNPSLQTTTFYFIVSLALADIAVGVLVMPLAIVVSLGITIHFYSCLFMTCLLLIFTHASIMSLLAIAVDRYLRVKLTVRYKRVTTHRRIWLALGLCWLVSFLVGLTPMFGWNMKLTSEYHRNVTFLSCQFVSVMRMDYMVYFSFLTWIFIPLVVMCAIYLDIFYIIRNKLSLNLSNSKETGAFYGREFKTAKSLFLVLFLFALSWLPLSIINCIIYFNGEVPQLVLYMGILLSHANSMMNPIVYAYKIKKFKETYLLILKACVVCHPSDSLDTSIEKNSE", "experiment": "radioligand binding (Table S2)", "conditions": "[125I] AB-MECA, Human recombinant HEK-293 cells"}, "Apelin APJ": {"target": "Apelin APJ (Homo sapiens, UniProt P35414)", "sequence (P35414 whole entry)": "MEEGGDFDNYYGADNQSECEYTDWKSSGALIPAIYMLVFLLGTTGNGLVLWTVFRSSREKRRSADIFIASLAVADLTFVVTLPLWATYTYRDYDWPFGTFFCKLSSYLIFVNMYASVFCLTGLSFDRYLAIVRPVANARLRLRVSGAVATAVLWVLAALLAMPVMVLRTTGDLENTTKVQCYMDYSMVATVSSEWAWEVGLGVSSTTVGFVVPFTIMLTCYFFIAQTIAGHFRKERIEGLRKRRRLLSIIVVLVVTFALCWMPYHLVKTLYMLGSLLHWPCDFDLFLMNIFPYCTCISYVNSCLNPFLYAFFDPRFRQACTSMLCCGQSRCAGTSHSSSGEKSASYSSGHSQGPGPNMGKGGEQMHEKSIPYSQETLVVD", "experiment": "radioligand binding (Table S2)", "conditions": "[125I] [Glp65, Nle75, Tyr77]-apelin-13, Human recombinant CHO cells"}, "Histamine H3": {"target": "T3, Histamine H3 (Homo sapiens, UniProt Q9Y5N1)", "T3 construct": "host or cells: CHO cells", "T3 sequence (Q9Y5N1 whole entry)": "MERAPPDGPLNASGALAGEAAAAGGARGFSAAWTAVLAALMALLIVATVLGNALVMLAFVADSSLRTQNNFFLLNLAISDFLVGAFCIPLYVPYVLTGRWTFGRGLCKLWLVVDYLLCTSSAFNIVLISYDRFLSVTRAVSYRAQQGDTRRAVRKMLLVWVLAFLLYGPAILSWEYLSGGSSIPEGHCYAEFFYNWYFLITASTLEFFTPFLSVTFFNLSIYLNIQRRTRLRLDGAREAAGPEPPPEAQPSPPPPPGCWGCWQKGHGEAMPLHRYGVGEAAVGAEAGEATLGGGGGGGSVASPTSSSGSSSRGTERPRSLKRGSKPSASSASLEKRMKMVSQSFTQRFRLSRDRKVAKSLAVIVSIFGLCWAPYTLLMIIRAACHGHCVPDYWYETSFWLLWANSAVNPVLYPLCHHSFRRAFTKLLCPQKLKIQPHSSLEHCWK", "experiment": "radioligand binding (Table S2)", "conditions": "[3H] Nα-Me-histamine, Human recombinant CHO cells"}, "[1]": {"target": "T4, Melanin-concentrating hormone receptor MCH1 (Homo sapiens, UniProt Q99705)", "T4 construct": "host or cells: CHO cells", "experiment": "radioligand binding (Table S2)", "conditions": "[125I] [Phe13, Tyr19]-MCH, Human recombinant CHO cells"}, "Orexin OX2": {"target": "T5, Orexin OX2 (Homo sapiens, UniProt O43614)", "T5 construct": "host or cells: HEK-293 cells", "T5 sequence (O43614 whole entry)": "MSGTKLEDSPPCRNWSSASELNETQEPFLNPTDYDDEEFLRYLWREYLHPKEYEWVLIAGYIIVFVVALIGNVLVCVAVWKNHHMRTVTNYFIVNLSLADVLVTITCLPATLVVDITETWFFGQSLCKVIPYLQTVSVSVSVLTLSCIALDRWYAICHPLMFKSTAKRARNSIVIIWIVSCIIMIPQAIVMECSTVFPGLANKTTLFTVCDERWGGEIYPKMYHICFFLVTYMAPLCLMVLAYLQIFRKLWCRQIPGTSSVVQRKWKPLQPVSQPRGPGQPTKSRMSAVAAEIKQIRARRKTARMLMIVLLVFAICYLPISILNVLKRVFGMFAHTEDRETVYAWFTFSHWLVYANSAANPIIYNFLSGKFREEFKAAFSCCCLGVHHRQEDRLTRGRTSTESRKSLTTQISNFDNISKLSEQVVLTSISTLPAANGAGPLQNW", "experiment": "radioligand binding (Table S2)", "conditions": "[125I] Orexin A, Human recombinant HEK-293 cells"}, "Potassium channel KATP": {"test_system": "Potassium channel KATP", "experiment": "radioligand binding (Table S2)", "conditions": "[3H] Glibenclamide, Rat cerebral cortex"}, "Prostacyclin IP (PGI2)": {"target": "T6, Prostacyclin IP (PGI2) (Homo sapiens, UniProt P43119)", "T6 construct": "host or cells: HEK-293 cells", "T6 sequence (P43119 whole entry)": "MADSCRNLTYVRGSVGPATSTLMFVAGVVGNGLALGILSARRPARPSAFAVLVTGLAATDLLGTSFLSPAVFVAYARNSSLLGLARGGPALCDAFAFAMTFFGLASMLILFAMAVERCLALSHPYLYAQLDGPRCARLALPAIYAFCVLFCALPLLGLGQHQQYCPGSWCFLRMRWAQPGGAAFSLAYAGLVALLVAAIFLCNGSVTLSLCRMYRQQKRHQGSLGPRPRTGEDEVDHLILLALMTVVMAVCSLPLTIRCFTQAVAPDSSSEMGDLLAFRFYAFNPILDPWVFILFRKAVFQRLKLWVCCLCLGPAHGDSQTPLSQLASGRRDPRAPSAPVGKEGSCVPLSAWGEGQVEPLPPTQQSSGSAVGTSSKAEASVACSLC", "experiment": "radioligand binding (Table S2)", "conditions": "[3H] Iloprost, Human recombinant HEK-293 cells"}, "Prostanoid CRTH2": {"target": "T7, Prostanoid CRTH2 (Homo sapiens, UniProt Q9Y5Y4)", "T7 construct": "host or cells: CHO-K1 cells", "experiment": "radioligand binding (Table S2)", "conditions": "[3H] Prostaglandin D2, Human recombinant CHO-K1 cells"}, "Purinergic receptor P2Y": {"test_system": "Purinergic receptor P2Y", "experiment": "radioligand binding (Table S2)", "conditions": "[35S] dATPαS, Rat cerebral cortex"}, "Somatostatin sst5": {"target": "Somatostatin sst5 (Homo sapiens, UniProt P35346)", "sequence (P35346 whole entry)": "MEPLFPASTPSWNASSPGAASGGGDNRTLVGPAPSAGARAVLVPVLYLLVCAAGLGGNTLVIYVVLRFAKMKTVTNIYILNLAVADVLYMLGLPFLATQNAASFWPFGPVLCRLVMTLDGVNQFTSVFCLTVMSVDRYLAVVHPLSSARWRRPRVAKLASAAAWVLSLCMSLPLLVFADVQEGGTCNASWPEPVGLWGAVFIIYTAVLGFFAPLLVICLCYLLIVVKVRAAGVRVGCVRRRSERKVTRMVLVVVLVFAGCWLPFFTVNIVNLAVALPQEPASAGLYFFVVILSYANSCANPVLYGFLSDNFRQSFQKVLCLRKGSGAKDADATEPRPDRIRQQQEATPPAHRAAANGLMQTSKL", "experiment": "radioligand binding (Table S2)", "conditions": "[125I] Tyr11-Somatostatin 14, Human recombinant Chem-1 cells"}, "[2]": {"target": "T8, Thyrotropin-releasing hormone TRH1 (Homo sapiens, UniProt P34981)", "T8 construct": "host or cells: CHO cells", "T8 sequence (P34981 whole entry)": "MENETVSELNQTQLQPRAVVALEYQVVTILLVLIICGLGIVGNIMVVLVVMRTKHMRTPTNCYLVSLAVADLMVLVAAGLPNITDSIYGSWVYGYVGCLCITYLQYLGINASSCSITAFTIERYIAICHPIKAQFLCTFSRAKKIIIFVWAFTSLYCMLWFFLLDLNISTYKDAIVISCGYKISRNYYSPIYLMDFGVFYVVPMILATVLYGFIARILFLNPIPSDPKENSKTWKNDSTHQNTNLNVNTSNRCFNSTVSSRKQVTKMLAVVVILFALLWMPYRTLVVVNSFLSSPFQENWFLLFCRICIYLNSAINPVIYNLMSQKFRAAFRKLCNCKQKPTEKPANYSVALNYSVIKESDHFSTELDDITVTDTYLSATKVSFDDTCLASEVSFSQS", "experiment": "radioligand binding (Table S2)", "conditions": "[3H] Me-TRH, Human recombinant CHO cells"}, "Acetylcholinesterase": {"target": "T9, Acetylcholinesterase (Homo sapiens, UniProt P22303)", "T9 construct": "Eurofins (assay provider); host or cells: HEK-293 cells", "T9 sequence (P22303 32-614)": "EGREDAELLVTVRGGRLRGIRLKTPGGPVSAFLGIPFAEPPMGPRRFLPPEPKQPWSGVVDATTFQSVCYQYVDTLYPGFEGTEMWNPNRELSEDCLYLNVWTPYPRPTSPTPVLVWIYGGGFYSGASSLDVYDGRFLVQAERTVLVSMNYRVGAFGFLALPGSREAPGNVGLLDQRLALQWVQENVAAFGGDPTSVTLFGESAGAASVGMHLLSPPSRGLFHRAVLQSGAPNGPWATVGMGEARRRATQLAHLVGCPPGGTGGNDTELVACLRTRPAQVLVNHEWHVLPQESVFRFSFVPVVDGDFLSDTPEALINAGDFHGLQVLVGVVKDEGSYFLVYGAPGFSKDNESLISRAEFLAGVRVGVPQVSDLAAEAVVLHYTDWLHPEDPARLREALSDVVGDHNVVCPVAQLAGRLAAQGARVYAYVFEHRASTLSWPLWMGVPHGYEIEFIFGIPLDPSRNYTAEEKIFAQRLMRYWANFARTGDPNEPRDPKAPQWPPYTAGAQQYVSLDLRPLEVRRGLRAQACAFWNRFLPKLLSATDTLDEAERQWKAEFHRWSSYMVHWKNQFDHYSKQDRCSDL", "experiment": "enzyme assay (Table S2)", "format": "biochemical", "conditions": "Acetylthiocholine (400 µM), Photometry"}, "PKCε": {"target": "T10, PKCε (Homo sapiens, UniProt Q02156)", "T10 construct": "host or cells: insect cells", "experiment": "enzyme assay (Table S2)", "format": "biochemical", "conditions": "HTRF"}, "TP (TXA2/PGH2)": {"target": "T11, TP (TXA2/PGH2) (Homo sapiens, UniProt P21731)", "T11 construct": "expressed in transfected cells; host or cells: HEK-293 cells", "T11 sequence (P21731 1-343)": "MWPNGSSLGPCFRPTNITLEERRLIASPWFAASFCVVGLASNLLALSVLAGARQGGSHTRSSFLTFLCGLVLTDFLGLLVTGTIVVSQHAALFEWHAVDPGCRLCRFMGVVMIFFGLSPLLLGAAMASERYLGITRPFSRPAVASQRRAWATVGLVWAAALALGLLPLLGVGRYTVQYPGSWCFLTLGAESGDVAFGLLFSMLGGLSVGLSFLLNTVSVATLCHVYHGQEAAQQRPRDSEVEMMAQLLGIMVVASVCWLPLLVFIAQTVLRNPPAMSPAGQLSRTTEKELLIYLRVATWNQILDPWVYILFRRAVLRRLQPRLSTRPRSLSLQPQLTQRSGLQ", "experiment": "functional assay, intracellular [Ca2+], HEK-293 cells (Table S2)", "format": "cell-based", "conditions": "for inhibition at 10 µM: HEK293, read-out: % inhibition of reference agonist response @ 10 µM (antagonist effect), 10 µM, U 44069 (10 nM)"}, "Vasopressin V1B": {"target": "T12, Vasopressin V1B (Homo sapiens, UniProt P47901)", "T12 construct": "expressed in transfected cells; host or cells: RBL cells", "T12 sequence (P47901 whole entry)": "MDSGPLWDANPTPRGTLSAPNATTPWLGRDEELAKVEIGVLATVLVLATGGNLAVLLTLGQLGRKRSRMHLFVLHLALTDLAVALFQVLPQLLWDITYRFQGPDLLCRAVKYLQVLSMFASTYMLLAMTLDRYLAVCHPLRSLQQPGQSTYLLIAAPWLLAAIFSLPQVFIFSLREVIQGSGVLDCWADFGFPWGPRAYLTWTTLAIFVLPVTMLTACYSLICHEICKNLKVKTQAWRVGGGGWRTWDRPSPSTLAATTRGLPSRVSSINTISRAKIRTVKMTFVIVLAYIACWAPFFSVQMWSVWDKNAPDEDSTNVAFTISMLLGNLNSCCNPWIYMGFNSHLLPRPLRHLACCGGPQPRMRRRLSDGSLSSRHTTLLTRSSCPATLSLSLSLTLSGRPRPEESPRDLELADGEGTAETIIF", "experiment": "functional assay, intracellular [Ca2+], RBL cells (Table S2)", "format": "cell-based", "conditions": "read-out: % inhibition of reference agonist response @ 10 µM (antagonist effect), Vasopressin (5 nM)"}, "Adrenergic α1A": {"target": "Adrenergic α1A (Homo sapiens, UniProt P35348)", "sequence (P35348 whole entry)": "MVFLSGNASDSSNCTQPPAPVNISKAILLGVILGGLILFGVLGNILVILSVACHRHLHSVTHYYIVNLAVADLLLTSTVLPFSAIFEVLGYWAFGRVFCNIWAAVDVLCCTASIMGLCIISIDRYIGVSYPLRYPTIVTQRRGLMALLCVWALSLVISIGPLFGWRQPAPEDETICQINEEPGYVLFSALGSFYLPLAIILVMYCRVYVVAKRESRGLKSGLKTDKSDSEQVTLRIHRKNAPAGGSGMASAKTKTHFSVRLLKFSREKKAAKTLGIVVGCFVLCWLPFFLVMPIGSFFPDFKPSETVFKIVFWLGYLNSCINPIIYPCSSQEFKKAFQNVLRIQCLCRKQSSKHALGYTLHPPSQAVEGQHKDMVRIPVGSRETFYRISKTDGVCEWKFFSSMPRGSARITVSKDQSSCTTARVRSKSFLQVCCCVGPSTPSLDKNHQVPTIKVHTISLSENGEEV", "experiment": "radioligand binding (Table S2)", "conditions": "read-out: % Inhibition @ 10 µM"}, "[3]": {"target": "Gamma-aminobutyric acid GABAB1B (Homo sapiens, UniProt Q9UBS5)", "sequence (Q9UBS5 1-844 isoform Q9UBS5-2)": "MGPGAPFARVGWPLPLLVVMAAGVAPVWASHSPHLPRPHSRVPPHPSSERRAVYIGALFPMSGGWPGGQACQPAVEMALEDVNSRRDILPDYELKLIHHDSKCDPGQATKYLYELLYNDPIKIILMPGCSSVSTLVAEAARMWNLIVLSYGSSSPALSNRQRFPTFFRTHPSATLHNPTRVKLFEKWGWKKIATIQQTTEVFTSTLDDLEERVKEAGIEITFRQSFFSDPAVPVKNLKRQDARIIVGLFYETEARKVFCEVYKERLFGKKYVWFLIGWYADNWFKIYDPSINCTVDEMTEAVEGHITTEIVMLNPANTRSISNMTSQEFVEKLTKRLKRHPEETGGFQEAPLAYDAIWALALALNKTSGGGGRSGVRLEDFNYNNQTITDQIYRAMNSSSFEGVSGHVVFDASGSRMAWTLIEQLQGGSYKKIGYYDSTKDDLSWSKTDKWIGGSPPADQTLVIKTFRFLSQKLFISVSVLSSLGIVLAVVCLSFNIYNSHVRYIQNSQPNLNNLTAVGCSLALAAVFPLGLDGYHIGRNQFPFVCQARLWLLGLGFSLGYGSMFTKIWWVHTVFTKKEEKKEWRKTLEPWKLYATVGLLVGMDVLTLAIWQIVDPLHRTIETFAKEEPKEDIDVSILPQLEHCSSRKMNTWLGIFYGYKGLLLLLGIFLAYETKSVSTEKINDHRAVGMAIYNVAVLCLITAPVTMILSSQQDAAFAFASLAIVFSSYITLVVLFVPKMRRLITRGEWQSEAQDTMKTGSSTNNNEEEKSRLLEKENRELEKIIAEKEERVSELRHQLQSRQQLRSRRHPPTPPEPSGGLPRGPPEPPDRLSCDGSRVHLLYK", "experiment": "radioligand binding (Table S2)", "conditions": "read-out: % Inhibition @ 10 µM"}}, "note": "“Also recorded” adds a separate entry of the source. Read-outs that look alike come from different tables or passages of the source."}
{"smiles": "Cc1cc(-c2ncnn2C)c2cccc(OCc3c(Cl)cc(F)cc3[C@H](C)NC(=O)COC(F)F)c2n1", "note": "[Compound 3, (S)-N-(1-(3-chloro-5-fluoro-2-((2-methyl-4-(1-methyl-1H-1,2,4-triazol-5-yl)quinolin-8-yloxy)methyl)phenyl)ethyl)-2-(difluoromethoxy)acetamide]", "values": [{"measurement": "effect on U-46619-induced contraction", "setting": "prostanoid TP receptor", "value": "Lack of antagonist effect; also recorded: no functional antagonism was observed"}, {"measurement": "inhibition at 10 µM", "setting": "Adenosine A1", "value": 12.4, "unit": "%"}, {"measurement": "inhibition at 10 µM", "setting": "Adenosine A3", "value": 39.8, "unit": "%"}, {"measurement": "inhibition at 10 µM", "setting": "Apelin APJ", "value": -0.4, "unit": "%"}, {"measurement": "inhibition at 10 µM", "setting": "Histamine H3", "value": 6.2, "unit": "%"}, {"measurement": "inhibition at 10 µM", "setting": "[1]", "value": 13.4, "unit": "%"}, {"measurement": "inhibition at 10 µM", "setting": "Orexin OX2", "value": 25.9, "unit": "%"}, {"measurement": "% Inhibition @ 10 µM", "setting": "Potassium channel KATP", "value": 2.3, "unit": "%"}, {"measurement": "inhibition at 10 µM", "setting": "Prostacyclin IP (PGI2)", "value": -5, "unit": "%"}, {"measurement": "inhibition at 10 µM", "setting": "Prostanoid CRTH2", "value": 3, "unit": "%"}, {"measurement": "% Inhibition @ 10 µM", "setting": "Purinergic receptor P2Y", "value": -4.3, "unit": "%"}, {"measurement": "inhibition at 10 µM", "setting": "Somatostatin sst5", "value": 2, "unit": "%"}, {"measurement": "inhibition at 10 µM", "setting": "[2]", "value": 21.7, "unit": "%"}, {"measurement": "inhibition at 10 µM", "setting": "Acetylcholinesterase", "value": 8.4, "unit": "%"}, {"measurement": "inhibition at 10 µM", "setting": "PKCε", "value": 6.8, "unit": "%"}, {"measurement": "IC50", "setting": "TP (TXA2/PGH2)", "value": 3.6, "unit": "µM"}, {"measurement": "Kb", "setting": "TP (TXA2/PGH2)", "value": 0.51, "unit": "µM"}, {"measurement": "% of reference agonist response @ 10 µM (agonist effect)", "setting": "TP (TXA2/PGH2); 10 µM, reference U 44069 (0.3 µM)", "value": -2.8, "unit": "%"}, {"measurement": "inhibition at 10 µM", "setting": "TP (TXA2/PGH2); first entry of Table S2, single concentration", "value": 62.3, "unit": "%"}, {"measurement": "inhibition at 10 µM", "setting": "TP (TXA2/PGH2); second entry of Table S2, with IC50 and KB", "value": 55.1, "unit": "%"}, {"measurement": "inhibition at 10 µM", "setting": "Vasopressin V1B", "value": 7.7, "unit": "%"}, {"measurement": "inhibition at 10 µM", "setting": "Adrenergic α1A", "value": 13.3, "unit": "%"}, {"measurement": "inhibition at 10 µM", "setting": "[3]", "value": 9, "unit": "%"}]}
